Reference: ChEMBL document CHEMBL1145667, “Carboxyatractyloside: A Compound from Xanthium strumarium and Atractylis gummifera with Plant Growth Inhibiting Properties. The Probable "Inhibitor A"” (1983)
Activity calls are given as the source filed them. The rule behind the calls is not given here.

Columns and labels:
[1] = tested on: Triticum aestivum; experiment: Growth inhibition of etiolated wheat coleoptiles at 0.60 to 0.90 retention factor by paper chromatograms relative to control; format: functional
[2] = tested on: Triticum aestivum; experiment: Growth inhibition of etiolated wheat coleoptiles at 100 uM after 24 hrs at 22 degC in dark relative to control; format: functional; conditions: read-out: GI
[3] = tested on: Triticum aestivum; experiment: Growth inhibition of etiolated wheat coleoptiles at 10 uM after 24 hrs at 22 degC in dark relative to control; format: functional; conditions: read-out: GI
[4] = tested on: Triticum aestivum; experiment: Growth inhibition of etiolated wheat coleoptiles at 1000 uM after 24 hrs at 22 degC in dark relative to control; format: functional; conditions: read-out: GI
[5] = tested on: Triticum aestivum; experiment: Growth inhibition of etiolated wheat coleoptiles at 0.20 to 0.30 retention factor by paper chromatograms relative to control; format: functional; design: scale not given: the % may be the effect or the level left
[6] = tested on: Zea mays; experiment: Growth inhibition of green house corn seedling assessed as stunting at 100 uM after 72 hrs; format: functional, organism-based
[7] = tested on: Nicotiana tabacum; experiment: Growth inhibition of green house tobacco seedlings assessed as cupping of leaves resembling tobacco at 1000 uM at 2 to 7 degC after 24 hrs; format: functional, organism-based
[8] = tested on: Nicotiana tabacum; experiment: Growth inhibition of green house tobacco seedlings assessed as cupping of leaves at 1000 uM within 24 hrs; format: functional, organism-based
[9] = tested on: Zea mays; experiment: Growth inhibition of green house corn seedling assessed as stunting at 10000 uM after 1 week relative to control; format: functional; conditions: 168 h, read-out: GI
[10] = tested on: Nicotiana tabacum; experiment: Growth inhibition of green house tobacco seedlings assessed as cupping of leaves resembling tobacco at 100 uM at 2 to 7 degC after 24 hrs; format: functional, organism-based
[11] = tested on: Nicotiana tabacum; experiment: Growth inhibition of green house tobacco seedlings assessed as cupping of the leaves at 100 uM after 72 hrs at 18.5 degC; format: functional, organism-based
[12] = tested on: Zea mays; experiment: Growth inhibition of green house corn seedling assessed as stunting at 1000 uM after 72 hrs; format: functional, organism-based
[13] = tested on: Triticum aestivum; experiment: Growth inhibition of etiolated wheat coleoptiles at 0.10 to 0.20 retention factor by paper chromatograms relative to control; format: functional; design: scale not given: the % may be the effect or the level left
[14] = tested on: Nicotiana tabacum; experiment: Growth inhibition of green house tobacco seedlings assessed as cupping of the leaves at 1000 uM after 72 hrs at 18.5 degC; format: functional, organism-based
[15] = tested on: Nicotiana tabacum; experiment: Growth inhibition of green house tobacco seedlings assessed as cupping of the leaves at 10000 uM after 72 hrs at 18.5 degC; format: functional, organism-based
[16] = tested on: Nicotiana tabacum; experiment: Growth inhibition of green house tobacco seedlings assessed as cupping of the leaves at 1000 uM at 18.5 degC after 24 hrs; format: functional, organism-based
[17] = tested on: Zea mays; experiment: Growth inhibition of green house corn seedling at 1000 uM after 2 weeks relative to control; format: functional; conditions: 336 h, read-out: GI
[18] = tested on: Zea mays; experiment: Growth inhibition of green house corn seedling assessed as necrotic lesions at 10000 uM after 1 week relative to control; format: functional; conditions: 168 h, read-out: GI
[19] = tested on: Zea mays; experiment: Growth inhibition of green house corn seedling assessed as chlorosis at 1000 uM after 72 hrs; format: functional, organism-based
[20] = tested on: Zea mays; experiment: Growth inhibition of green house corn seedling assessed as whorls and chlorosis of the leaf margins at 1000 uM relative to control; format: functional; conditions: read-out: GI
[21] = tested on: Zea mays; experiment: Growth inhibition of green house corn seedling assessed as necrotic lesions at 10000 uM after 72 hrs; format: functional, organism-based
[22] = tested on: Triticum aestivum; experiment: Growth inhibition of etiolated wheat coleoptiles at 0.00 to 0.10 retention factor by paper chromatograms relative to control; format: functional; design: scale not given: the % may be the effect or the level left
[23] = tested on: Zea mays; experiment: Growth inhibition of green house corn seedling at 10000 uM after 2 weeks relative to control; format: functional; conditions: 336 h, read-out: GI
[24] = tested on: Zea mays; experiment: Growth inhibition of green house corn seedling assessed as chlorosis at 100 uM after 72 hrs; format: functional, organism-based
[25] = tested on: Nicotiana tabacum; experiment: Growth inhibition of green house tobacco seedlings assessed as cupping of the leaves at 100 uM at 18.5 degC after 24 hrs; format: functional, organism-based
[26] = tested on: Nicotiana tabacum; experiment: Growth inhibition of green house tobacco seedlings assessed as cupping of leaves at 100 uM within 24 hrs; format: functional, organism-based
[27] = tested on: Nicotiana tabacum; experiment: Growth inhibition of green house tobacco seedlings assessed as cupping of leaves resembling tobacco at 10000 uM at 2 to 7 degC after 24 hrs; format: functional, organism-based
[28] = tested on: Nicotiana tabacum; experiment: Growth inhibition of green house tobacco seedlings assessed as cupping of leaves at 10000 uM within 24 hrs; format: functional, organism-based
[29] = tested on: Nicotiana tabacum; experiment: Growth inhibition of green house tobacco seedlings assessed as cupping of the leaves at 10000 uM at 18.5 degC after 24 hrs; format: functional, organism-based

What does the source list for `CC1=CC(=O)CC(C)(C)C1(O)/C=C/C(C)=C\C(=O)O` (racemic) [ABSCISIC ACID]?
growth inhibition (GI) [1]: 100%; inhibition of growth at 100 µM [2]: 90%; inhibition of growth at 10 µM [3]: 69%; inhibition of growth at 1000 µM [4]: 100%

For `C=C1[C@H]2CC[C@H]3[C@]4(C)C[C@H](O[C@@H]5O[C@H](CO)[C@@H](OS(=O)(=O)O)[C@H](OS(=O)(=O)O)[C@H]5OC(=O)CC(C)C)CC(C(=O)[O-])(C(=O)[O-])[C@H]4CC[C@]3(C2)[C@H]1O.[K+].[K+]` [POTASSIUM CARBOXYATRACTYLOSIDE], which Activity [5] is on record?
The Activity was 86.4%.

What about the Activity [6] of the same molecule?
Its Activity is “Active”.

What about the Activity [7] of the same molecule?
Its Activity is “Active”.

What about the Activity [8] of the same molecule?
The Activity was “Active”.

And the inhibition of growth at 10000 µM [9]?
Its inhibition of growth at 10000 µM is 50%.

What about the Activity [10] of the same molecule?
The Activity was “Active”.

And the Activity [11]?
The Activity was “Active”.

And the Activity [12]?
Its Activity is “Active”.

And the inhibition of growth at 100 µM [2]?
Its inhibition of growth at 100 µM is 91%.

What about the Activity [13] of the same molecule?
The Activity was 76.7%.

What about the Activity [14] of the same molecule?
Its Activity is “Active”.

What about the Activity [15] of the same molecule?
Its Activity is “Active”.

What about the Activity [16] of the same molecule?
The Activity was “Active”.

What about the inhibition of growth at 1000 µM [17] of the same molecule?
Its inhibition of growth at 1000 µM is 14%.

What about the inhibition of growth at 10000 µM [18] of the same molecule?
The inhibition of growth at 10000 µM was 50%.

And the Activity [19]?
The Activity was “Active”.

What about the inhibition of growth at 1000 µM [20] of the same molecule?
Its inhibition of growth at 1000 µM is 25%.

What about the Activity [21] of the same molecule?
The Activity was “Active”.

And the Activity [22]?
Its Activity is 88.4%.

And the inhibition of growth at 10000 µM [23]?
The inhibition of growth at 10000 µM was 43%.

And the inhibition of growth at 10 µM [3]?
Its inhibition of growth at 10 µM is 48%.

And the Activity [24]?
The Activity was “Active”.

And the Activity [25]?
The Activity was “Active”.

And the Activity [26]?
The Activity was “Active”.

What about the inhibition of growth at 1000 µM [4] of the same molecule?
The inhibition of growth at 1000 µM was 100%.

And the Activity [27]?
Its Activity is “Active”.

What about the Activity [28] of the same molecule?
The Activity was “Active”.

And the Activity [29]?
Its Activity is “Active”.
